Source: patent publication US10683290B2, “Tricyclic compounds as anticancer agents” (BRISTOL-MYERS SQUIBB COMPANY, priority 2015, dated 2020)

Target: BRD4 (Homo sapiens, UniProt O60885)
Assay: biochemical
Format: binding
Conditions: one of the FRET assays described; read-out: FRET BRD4 IC50

Work on `[2H]C([2H])([2H])c1nnn(C)c1-c1cc2c(cc1F)c1ncc(C(C)(C)O)cc1n2C(CCC)c1ccccn1` (single isomer, unassigned) [Example 48, 2-{8-fluoro-7-[4-(^2H3)methyl-1-methyl-1H-1,2,3-triazol-5-yl]-5-[1-(pyridin-2-yl)butyl]-5H-pyrido[3,2-b]indol-3-yl}propan-2-ol] yielded an IC50 of less than 1500 nM.

With `[2H]C([2H])([2H])c1nnn(C)c1-c1cc2c(cc1F)c1ncc(C(C)(C)O)cc1n2C(CCC)c1ccccn1` (single isomer, unassigned) [Example 49, 2-{8-fluoro-7-[4-(^2H3)methyl-1-methyl-1H-1,2,3-triazol-5-yl]-5-[1-(pyridin-2-yl)butyl]-5H-pyrido[3,2-b]indol-3-yl}propan-2-ol] the IC50 was less than 5 nM.

In the case of `[2H]C([2H])([2H])c1nnn(C)c1-c1cc2c(cc1F)c1ncc(C(C)(C)O)cc1n2C(c1cc(OC)ccn1)C1CCOCC1` (single isomer, unassigned) [Example 50, 2-{8-fluoro-5-[(4-methoxypyridin-2-yl)(oxan-4-yl)methyl]-7-[4-(^2H3)methyl-1-methyl-1H-1,2,3-triazol-5-yl]-5H-pyrido[3,2-b]indol-3-yl}propan-2-ol], the IC50 is reported as less than 5 nM.

Work on `[2H]C([2H])([2H])c1nnn(C)c1-c1cc2c(cc1F)c1ncc(C(C)(C)O)cc1n2C(c1cc(OC)ccn1)C1CCOCC1` (single isomer, unassigned) [Example 51, 2-{8-fluoro-5-[(4-methoxypyridin-2-yl)(oxan-4-yl)methyl]-7-[4-(^2H3)methyl-1-methyl-1H-1,2,3-triazol-5-yl]-5H-pyrido[3,2-b]indol-3-yl}propan-2-ol] yielded an IC50 of less than 1500 nM.

In the case of `[2H]C([2H])([2H])c1nnn(C)c1-c1cc2c(cc1F)c1ncc(C(C)(C)O)cc1n2C(c1cc(C)ccn1)C1CCOCC1` (single isomer, unassigned) [Example 52, 2-{8-fluoro-7-[4-(^2H3)methyl-1-methyl-1H-1,2,3-triazol-5-yl]-5-[(4-methylpyridin-2-yl)(oxan-4-yl)methyl]-5H-pyrido[3,2-b]indol-3-yl}propan-2-ol], the IC50 is reported as less than 5 nM.

`[2H]C([2H])([2H])c1nnn(C)c1-c1cc2c(cc1F)c1ncc(C(C)(C)O)cc1n2C(c1cc(C)ccn1)C1CCOCC1` (single isomer, unassigned) [Example 53, 2-{8-fluoro-7-[4-(^2H3)methyl-1-methyl-1H-1,2,3-triazol-5-yl]-5-[(4-methylpyridin-2-yl)(oxan-4-yl)methyl]-5H-pyrido[3,2-b]indol-3-yl}propan-2-ol] was tested, and the IC50 was less than 1500 nM.

Compound `Cc1nnn(C)c1-c1cc2c(cc1F)c1ncc(C(C)(C)O)cc1n2C(c1ncccn1)C1CCOCC1` (single isomer, unassigned) [Example 54] has an IC50 of less than 5 nM.

Work on `Cc1nnn(C)c1-c1cc2c(cc1F)c1ncc(C(C)(C)O)cc1n2C(c1ncccn1)C1CCOCC1` (single isomer, unassigned) [Example 55] yielded an IC50 of less than 1500 nM.

For `[2H]C([2H])([2H])c1nnn(C)c1-c1cc2c(cc1F)c1ncc(C(C)(C)O)cc1n2C(c1ccc(C)cn1)C1CCOCC1` (single isomer, unassigned) [Example 56, 2-{8-fluoro-7-[4-(^2H3)methyl-1-methyl-1H-1,2,3-triazol-5-yl]-5-[(5-methylpyridin-2-yl)(oxan-4-yl)methyl]-5H-pyrido[3,2-b]indol-3-yl}propan-2-ol], the IC50 was less than 5 nM.

In the case of `[2H]C([2H])([2H])c1nnn(C)c1-c1cc2c(cc1F)c1ncc(C(C)(C)O)cc1n2C(c1ccc(C)cn1)C1CCOCC1` (single isomer, unassigned) [Example 57, 2-{8-fluoro-7-[4-(^2H3)methyl-1-methyl-1H-1,2,3-triazol-5-yl]-5-[(5-methylpyridin-2-yl)(oxan-4-yl)methyl]-5H-pyrido[3,2-b]indol-3-yl}propan-2-ol], the IC50 is reported as less than 1500 nM.

For `[2H]C([2H])([2H])c1nnn(C)c1-c1cc2c(cc1F)c1ncc(C(C)(C)O)cc1n2C(CCC)c1ccc(F)cn1` (single isomer, unassigned) [Example 59, 2-{8-fluoro-5-[1-(5-fluoropyridin-2-yl)butyl]-7-[4-(^2H3)methyl-1-methyl-1H-1,2,3-triazol-5-yl]-5H-pyrido[3,2-b]indol-3-yl}propan-2-ol], the IC50 was less than 5 nM.

`[2H]C([2H])([2H])c1nnn(C)c1-c1cc2c(cc1F)c1ncc(C(C)(C)O)cc1n2C(CCOC)c1ccccc1` (single isomer, unassigned) [Example 62, 2-[8-fluoro-5-(3-methoxy-1-phenylpropyl)-7-[4-(^2H3)methyl-1-methyl-1H-1,2,3-triazol-5-yl]-5H-pyrido[3,2-b]indol-3-yl]propan-2-ol] showed an IC50 of less than 1500 nM.

In the case of `[2H]C([2H])([2H])c1nnn(C)c1-c1cc2c(cc1F)c1ncc(C(C)(C)O)cc1n2C(CCOC)c1ccccc1` (single isomer, unassigned) [Example 63, 2-[8-fluoro-5-(3-methoxy-1-phenylpropyl)-7-[4-(^2H3)methyl-1-methyl-1H-1,2,3-triazol-5-yl]-5H-pyrido[3,2-b]indol-3-yl]propan-2-ol], the IC50 is reported as less than 5 nM.

`[2H]C([2H])([2H])c1nnn(C)c1-c1cc2c(cc1F)c1ncc(C(C)(C)O)cc1n2C(c1ccccc1)C1(C)COC1` (single isomer, unassigned) [Example 64, 2-{8-fluoro-7-[4-(^2H3)methyl-1-methyl-1H-1,2,3-triazol-5-yl]-5-[(3-methyloxetan-3-yl)(phenyl)methyl]-5H-pyrido[3,2-b]indol-3-yl}propan-2-ol] showed an IC50 of less than 5 nM.

Work on `[2H]C([2H])([2H])c1nnn(C)c1-c1cc2c(cc1F)c1ncc(C(C)(C)O)cc1n2C(c1ccccc1)C1(C)COC1` (single isomer, unassigned) [Example 65, 2-{8-fluoro-7-[4-(^2H3)methyl-1-methyl-1H-1,2,3-triazol-5-yl]-5-[(3-methyloxetan-3-yl)(phenyl)methyl]-5H-pyrido[3,2-b]indol-3-yl}propan-2-ol] yielded an IC50 of less than 1500 nM.

`[2H]C([2H])([2H])c1nnn(C)c1-c1cc2c(cc1F)c1ncc(C(C)(C)O)cc1n2C(c1ccccc1)C1COC1` (single isomer, unassigned) [Example 67, 2-{8-fluoro-7-[4-(^2H3)methyl-1-methyl-1H-1,2,3-triazol-5-yl]-5-[oxetan-3-yl(phenyl)methyl]-5H-pyrido[3,2-b]indol-3-yl}propan-2-ol] was tested, and the IC50 was less than 5 nM.

In the case of `[2H]C([2H])([2H])c1nnn(C)c1-c1cc2c(cc1F)c1ncc(C(C)(C)O)cc1n2C(c1ccccc1)C1COC1` (single isomer, unassigned) [Example 68, 2-{8-fluoro-7-[4-(^2H3)methyl-1-methyl-1H-1,2,3-triazol-5-yl]-5-[oxetan-3-yl(phenyl)methyl]-5H-pyrido[3,2-b]indol-3-yl}propan-2-ol], the IC50 is reported as less than 1500 nM.

Work on `Cc1nnn(C)c1-c1cc2c(cc1F)c1ncc(C(C)(C)O)cc1n2C(c1ccc(F)cn1)C1CCOCC1` (single isomer, unassigned) [Example 69, 2-[7-(dimethyl-1H-1,2,3-triazol-5-yl)-8-fluoro-5-[(5-fluoropyridin-2-yl)(oxan-4-yl)methyl]-5H-pyrido[3,2-b]indol-3-yl]propan-2-ol] yielded an IC50 of less than 1500 nM.

In the case of `Cc1nnn(C)c1-c1cc2c(cc1F)c1ncc(C(C)(C)O)cc1n2C(c1ccc(F)cn1)C1CCOCC1` (single isomer, unassigned) [Example 70, 2-[7-(dimethyl-1H-1,2,3-triazol-5-yl)-8-fluoro-5-[(5-fluoropyridin-2-yl)(oxan-4-yl)methyl]-5H-pyrido[3,2-b]indol-3-yl]propan-2-ol], the IC50 is reported as less than 5 nM.

`[2H]C([2H])([2H])c1nnn(C)c1-c1ccc2c3ncc(C(C)(C)O)cc3n(C(c3ncccc3F)C3CCOCC3)c2c1` (single isomer, unassigned) [Example 71, 2-{5-[(3-Fluoropyridin-2-yl)(oxan-4-yl)methyl]-7-[4-(^2H3)methyl-1-methyl-1H-1,2,3-triazol-5-yl]-5H-pyrido[3,2-b]indol-3-yl}propan-2-ol] showed an IC50 of less than 1 nM.

`[2H]C([2H])([2H])c1nnn(C)c1-c1ccc2c3ncc(C(C)(C)O)cc3n(C(c3ncccc3F)C3CCOCC3)c2c1` (single isomer, unassigned) [Example 72, 2-{5-[(3-Fluoropyridin-2-yl)(oxan-4-yl)methyl]-7-[4-(^2H3)methyl-1-methyl-1H-1,2,3-triazol-5-yl]-5H-pyrido[3,2-b]indol-3-yl}propan-2-ol] gave an IC50 of less than 1 nM.

Work on `[2H]C([2H])([2H])c1nnn(C)c1-c1ccc2c3ncc(C(C)(C)O)cc3n(C(c3cc(C)on3)C3CCOCC3)c2c1` (single isomer, unassigned) [Example 73, 2-{5-[(5-methyl-1,2-oxazol-3-yl)(oxan-4-yl)methyl]-7-[4-(^2H3)methyl-1-methyl-1H-1,2,3-triazol-5-yl]-5H-pyrido[3,2-b]indol-3-yl}propan-2-ol] yielded an IC50 of less than 5 nM.

With `[2H]C([2H])([2H])c1nnn(C)c1-c1ccc2c3ncc(C(C)(C)O)cc3n(C(c3cc(C)on3)C3CCOCC3)c2c1` (single isomer, unassigned) [Example 74, 2-{5-[(5-methyl-1,2-oxazol-3-yl)(oxan-4-yl)methyl]-7-[4-(^2H3)methyl-1-methyl-1H-1,2,3-triazol-5-yl]-5H-pyrido[3,2-b]indol-3-yl}propan-2-ol] the IC50 was less than 1500 nM.

For `[2H]C([2H])([2H])c1nnn(C)c1-c1cc2c(cc1Cl)c1ncc(C(C)(C)O)cc1n2C(c1ncccc1F)C1CCOCC1` (single isomer, unassigned) [Example 75, 2-{8-Chloro-5-[(3-fluoropyridin-2-yl)(oxan-4-yl)methyl]-7-[4-(^2H3)methyl-1-methyl-1H-1,2,3-triazol-5-yl]-5H-pyrido[3,2-b]indol-3-yl}propan-2-ol], the IC50 was less than 1500 nM.

`[2H]C([2H])([2H])c1nnn(C)c1-c1cc2c(cc1Cl)c1ncc(C(C)(C)O)cc1n2C(c1ncccc1F)C1CCOCC1` (single isomer, unassigned) [Example 76, 2-{8-Chloro-5-[(3-fluoropyridin-2-yl)(oxan-4-yl)methyl]-7-[4-(^2H3)methyl-1-methyl-1H-1,2,3-triazol-5-yl]-5H-pyrido[3,2-b]indol-3-yl}propan-2-ol] gave an IC50 of less than 1500 nM.

`[2H]C([2H])([2H])c1nnn(C)c1-c1cc2c(cc1Cl)c1ncc(C(C)(C)O)cc1n2C(c1cc(C)on1)C1CCOCC1` (single isomer, unassigned) [Example 78, 2-{8-chloro-5-[(5-methyl-1,2-oxazol-3-yl)(oxan-4-yl)methyl]-7-[4-(^2H3)methyl-1-methyl-1H-1,2,3-triazol-5-yl]-5H-pyrido[3,2-b]indol-3-yl}propan-2-ol] was tested, and the IC50 was less than 1500 nM.
